The experiment has as its system pPSCs (cESCs d7) and PSCs (WT ESCs). The experiment can be described thus: Cardiogenic differentiation induced by icariin, Real-Time PCR of cardiogenic markers. The experiment is classed as cell-based, mouse. As to conditions: 12 days stimulation with icariin (d7 to d7+12), RNA isolated every 4 days, normalized to Gapdh; pPSCs compared with PSCs. How it is done:
Total RNA was isolated from ˜1×10^6 cells per sample using the RNeasy Plus Mini Kit (Qiagen, Hombrechtikon, Switzerland) with RNase-free DNase treatment (Qiagen) following the manufacturer's protocol. For reverse transcription (RT) 2 μg total RNA was reverse transcribed into cDNA in a reaction volume of 20 μl using the iScript™ Advanced cDNA Synthesis Kit (Bio-Rad). Each RT reaction mix contained 4 μl 5× iScript advanced reaction mix and 1 μl iScript advanced reverse transcriptase. The 20 μl reactions were incubated at 42° C. for 30 min, at 85° C. for 5 min, and then held at 4° C. Real-Time PCR reactions were performed on the resulting cDNA using the CFX Connect™ Real-Time PCR Detection System (Bio-Rad), SsoAdvanced™ SYBR® Green Supermix (Bio-Rad) and Hard-Shell® Low-Profile Thin-Wall 96-Well Skirted PCR Plates (Bio-Rad). Briefly, following the RT step, 5 μl of the 100fold-diluted RT reaction was combined with 15 μl mastermix (2× SsoAdvanced™ SYBR® Green Supermix, forward primer, reverse primer and nuclease-free water) in a 20 μl final volume. PCR reactions were incubated at 95° C. for 3 min, followed by 39 cycles of 95° C. for 10 s and 62° C. for 30 s; and were run as duplicates of two independent experiments. […] Results were analyzed using CFX Manager™ software (Bio-Rad) and mRNA expression levels relative to Gapdh were calculated based on the AACt method. […]
In general terms: Quantitative PCR measures a nucleic acid by following its amplification.

These results are taken from patent publication US20160244718A1, “REPROGRAMMING OF PLURIPOTENT STEM CELLS FOR IMPROVED CONTROL OF THEIR DIFFERENTIATION PATHWAYS” (ETH ZURICH, priority 2013, published 2016).

Molecules are shown by their SMILES.

Regarding `COc1ccc(-c2oc3c(CC=C(C)C)c(O[C@@H]4O[C@H](CO)[C@@H](O)[C@H](O)[C@H]4O)cc(O)c3c(=O)c2O[C@@H]2O[C@@H](C)[C@H](O)[C@@H](O)[C@H]2O)cc1` [icariin], the “mRNA expression of all tested cardiogenic markers” value is on record as “induced higher in pPSCs than in PSCs”.
